Earlier results, collected in patent US20030232875A1, “Bicyclic pyrrolyl amides as glucogen phosphorylase inhibitors” (priority 2000, published 2003).

Experiments:
hepatocytes = details: in hepatocytes
db/db and ob/ob mice = db/db and ob/ob mice following treatment
conscious dogs = details: following a glucagon challenge

Structure (SMILES) | glucagon stimulated glycogenolysis (hepatocytes) | glucose output (hepatocytes) | plasma glucose concentration (db/db and ob/ob mice) | arterial plasma glucose levels (conscious dogs) | hepatic glucose output (conscious dogs)
O=C(N[C@@H](Cc1ccc(F)cc1)C(=O)N1CCC(O)CC1)c1cc2cc(Cl)ccc2[nH]1 [CP320626] | reduce | reduce | reduced, in a dose related manner | – | –
CN(C)C(=O)[C@H](O)[C@H](Cc1ccccc1)NC(=O)c1cc2cc(Cl)ccc2[nH]1 [CP91149] | reduce | reduce | reduced, in a dose related manner | – | –
CCN1C(C)=C(C(=O)OC(C)C)C(c2ccccc2Cl)C2=C1COC2=O (centres unmarked) [Bay R 3401] | – | – | – | reduced significantly | reduced significantly
